Results from the CheMixHub ionic liquid set.
± gives the uncertainty stated by the source.

Experiment: xn = mol fraction of the nth substance listed
Details: 100 kPa

CC(C)C[C@H](N)C(=O)O + CCCC[n+]1ccn(C)c1.F[B-](F)(F)F + O
viscosity [mPa·s]
Details	308.15 K	313.15 K	318.15 K
x1 = 0.0002738, x2 = 0	0.729 ± 0.061	0.663 ± 0.061	0.605 ± 0.061
x1 = 0.0002786, x2 = 0.0003728	0.763 ± 0.061	0.705 ± 0.061	0.65 ± 0.061
x1 = 0.0002797, x2 = 0.0007255	0.802 ± 0.061	0.749 ± 0.061	0.694 ± 0.061
x1 = 0.0002864, x2 = 0.001099	0.845 ± 0.061	0.794 ± 0.061	0.74 ± 0.061
x1 = 0.0004577, x2 = 0.0007254	0.808 ± 0.061	0.754 ± 0.061	0.698 ± 0.061
x1 = 0.0004593, x2 = 0	0.733 ± 0.061	0.667 ± 0.061	0.608 ± 0.061
x1 = 0.0004597, x2 = 0.001099	0.85 ± 0.061	0.8 ± 0.061	0.746 ± 0.061
x1 = 0.0004649, x2 = 0.0003727	0.768 ± 0.061	0.709 ± 0.061	0.654 ± 0.061
x1 = 0.0006294, x2 = 0.0003726	0.772 ± 0.061	0.714 ± 0.061	0.659 ± 0.061
x1 = 0.0006321, x2 = 0	0.736 ± 0.061	0.67 ± 0.061	0.612 ± 0.061
x1 = 0.0006374, x2 = 0.0007252	0.812 ± 0.061	0.759 ± 0.061	0.704 ± 0.061
x1 = 0.0006474, x2 = 0.001099	0.856 ± 0.061	0.805 ± 0.061	0.751 ± 0.061
x1 = 0.0008066, x2 = 0	0.74 ± 0.061	0.674 ± 0.061	0.616 ± 0.061
x1 = 0.0008173, x2 = 0.0003726	0.777 ± 0.061	0.718 ± 0.061	0.663 ± 0.061
x1 = 0.0008279, x2 = 0.0007251	0.817 ± 0.061	0.764 ± 0.061	0.708 ± 0.061
x1 = 0.0008314, x2 = 0.001099	0.861 ± 0.061	0.81 ± 0.061	0.756 ± 0.061
x1 = 0.0009955, x2 = 0	0.744 ± 0.061	0.678 ± 0.061	0.619 ± 0.061
x1 = 0.001003, x2 = 0.0003725	0.781 ± 0.061	0.722 ± 0.061	0.667 ± 0.061
x1 = 0.001004, x2 = 0.000725	0.822 ± 0.061	0.768 ± 0.061	0.712 ± 0.061
x1 = 0.00101, x2 = 0.001099	0.866 ± 0.061	0.815 ± 0.061	0.761 ± 0.061
x1 = 0.001168, x2 = 0	0.747 ± 0.061	0.681 ± 0.061	0.622 ± 0.061
x1 = 0.001172, x2 = 0.0007248	0.826 ± 0.061	0.772 ± 0.061	0.716 ± 0.061
x1 = 0.001177, x2 = 0.0003724	0.785 ± 0.061	0.726 ± 0.061	0.671 ± 0.061
x1 = 0.001183, x2 = 0.001099	0.871 ± 0.061	0.82 ± 0.061	0.766 ± 0.061
x1 = 0.00135, x2 = 0.0003724	0.789 ± 0.061	0.73 ± 0.061	0.675 ± 0.061
x1 = 0.001357, x2 = 0	0.751 ± 0.061	0.684 ± 0.061	0.625 ± 0.061
x1 = 0.001369, x2 = 0.001098	0.876 ± 0.061	0.825 ± 0.061	0.771 ± 0.061
x1 = 0.00137, x2 = 0.0007247	0.831 ± 0.061	0.777 ± 0.061	0.721 ± 0.061
x1 = 0.001535, x2 = 0	0.755 ± 0.061	0.688 ± 0.061	0.629 ± 0.061
x1 = 0.001541, x2 = 0.0003723	0.794 ± 0.061	0.734 ± 0.061	0.679 ± 0.061
x1 = 0.001554, x2 = 0.001098	0.881 ± 0.061	0.83 ± 0.061	0.776 ± 0.061
x1 = 0.001557, x2 = 0.0007246	0.835 ± 0.061	0.781 ± 0.061	0.725 ± 0.061
x1 = 0.00172, x2 = 0	0.758 ± 0.061	0.691 ± 0.061	0.632 ± 0.061
x1 = 0.00172, x2 = 0.0003722	0.797 ± 0.061	0.738 ± 0.061	0.682 ± 0.061
x1 = 0.00172, x2 = 0.0007244	0.839 ± 0.061	0.785 ± 0.061	0.729 ± 0.061
x1 = 0.001727, x2 = 0.001098	0.886 ± 0.061	0.835 ± 0.061	0.781 ± 0.061
